Data on 11 compounds can be found in ChEMBL document CHEMBL3407453, “LEADOPT: an automatic tool for structure-based lead optimization, and its application in structural optimizations of VEGFR2 and SYK inhibitors” (Eur J Med Chem, 2015).

Experiment [1] has as its target T1, Vascular endothelial growth factor receptor 2 (Homo sapiens, UniProt P35968). In words: Inhibition of VEGFR2 (unknown origin) by [33P]radiolabeled method.
Experiment [2] concerns the target T2, Tyrosine-protein kinase SYK (Homo sapiens, UniProt P43405). In words: Inhibition of SYK (unknown origin).
The test system of experiment [3] is HUVEC. In words: Antiangiogenic activity in HUVEC cells assessed as inhibition of cell migration at 5 uM after 18 hrs by wound healing assay. Format: functional, cell-based. The following applies: Homo sapiens.
For experiment [4], the system named is HUVEC. The experiment is described as follows: Antiangiogenic activity in HUVEC cells assessed as inhibition of cell migration after 18 hrs by wound healing assay. The following applies: Homo sapiens. In kind it is functional, cell-based.
Experiment [5] concerns the target T1, Vascular endothelial growth factor receptor 2. In words: Inhibition of VEGFR2-mediated ERK1/2 phosphorylation in VEGF-stimulated HUVEC cells at 0.01 to 10 uM after 2 hrs by Western blot analysis. In kind it is cell-based. A general note: In western blotting, separated proteins are transferred to a membrane and probed.
For experiment [6] the target is unchanged. The following applies: HUVEC, at 0.01 to 10 µM.
Description: Inhibition of VEGFR2 phosphorylation in VEGF-stimulated HUVEC cells at 0.01 to 10 uM after 2 hrs by Western blot analysis
The test system of another experiment is MV4-11. The experiment is described as follows: Cytotoxicity against human MV4-11 cells assessed as reduction in cell viability after 72 hrs by MTT assay. Format: functional, cell-based. The following applies: MV4-11, 72 h. Background: Tetrazolium assays rely on reduction of a dye to a coloured formazan, in cell work by metabolically active cells.
The next experiment concerns Ramos. In words: Cytotoxicity against human Ramos cells assessed as reduction in cell viability after 72 hrs by MTT assay. In kind it is functional, cell-based.
Experiment [7] addresses T2, Tyrosine-protein kinase SYK. In words: Inhibition of SYK-mediated FLT3 phosphorylation in human MV4-11 cells at 0.01 to 1 uM after 6 hrs by Western blot analysis. Format: cell-based.
For experiment [8] the target is unchanged. The experiment is described as follows: Inhibition of SYK-mediated ERK1/2 phosphorylation in human MV4-11 cells at 0.01 to 1 uM after 6 hrs by Western blot analysis. Format: cell-based.

Active and inactive are the calls of the source. The calls are words filed in the database; no cut-off is given here.

T1 sequence (P35968 whole entry): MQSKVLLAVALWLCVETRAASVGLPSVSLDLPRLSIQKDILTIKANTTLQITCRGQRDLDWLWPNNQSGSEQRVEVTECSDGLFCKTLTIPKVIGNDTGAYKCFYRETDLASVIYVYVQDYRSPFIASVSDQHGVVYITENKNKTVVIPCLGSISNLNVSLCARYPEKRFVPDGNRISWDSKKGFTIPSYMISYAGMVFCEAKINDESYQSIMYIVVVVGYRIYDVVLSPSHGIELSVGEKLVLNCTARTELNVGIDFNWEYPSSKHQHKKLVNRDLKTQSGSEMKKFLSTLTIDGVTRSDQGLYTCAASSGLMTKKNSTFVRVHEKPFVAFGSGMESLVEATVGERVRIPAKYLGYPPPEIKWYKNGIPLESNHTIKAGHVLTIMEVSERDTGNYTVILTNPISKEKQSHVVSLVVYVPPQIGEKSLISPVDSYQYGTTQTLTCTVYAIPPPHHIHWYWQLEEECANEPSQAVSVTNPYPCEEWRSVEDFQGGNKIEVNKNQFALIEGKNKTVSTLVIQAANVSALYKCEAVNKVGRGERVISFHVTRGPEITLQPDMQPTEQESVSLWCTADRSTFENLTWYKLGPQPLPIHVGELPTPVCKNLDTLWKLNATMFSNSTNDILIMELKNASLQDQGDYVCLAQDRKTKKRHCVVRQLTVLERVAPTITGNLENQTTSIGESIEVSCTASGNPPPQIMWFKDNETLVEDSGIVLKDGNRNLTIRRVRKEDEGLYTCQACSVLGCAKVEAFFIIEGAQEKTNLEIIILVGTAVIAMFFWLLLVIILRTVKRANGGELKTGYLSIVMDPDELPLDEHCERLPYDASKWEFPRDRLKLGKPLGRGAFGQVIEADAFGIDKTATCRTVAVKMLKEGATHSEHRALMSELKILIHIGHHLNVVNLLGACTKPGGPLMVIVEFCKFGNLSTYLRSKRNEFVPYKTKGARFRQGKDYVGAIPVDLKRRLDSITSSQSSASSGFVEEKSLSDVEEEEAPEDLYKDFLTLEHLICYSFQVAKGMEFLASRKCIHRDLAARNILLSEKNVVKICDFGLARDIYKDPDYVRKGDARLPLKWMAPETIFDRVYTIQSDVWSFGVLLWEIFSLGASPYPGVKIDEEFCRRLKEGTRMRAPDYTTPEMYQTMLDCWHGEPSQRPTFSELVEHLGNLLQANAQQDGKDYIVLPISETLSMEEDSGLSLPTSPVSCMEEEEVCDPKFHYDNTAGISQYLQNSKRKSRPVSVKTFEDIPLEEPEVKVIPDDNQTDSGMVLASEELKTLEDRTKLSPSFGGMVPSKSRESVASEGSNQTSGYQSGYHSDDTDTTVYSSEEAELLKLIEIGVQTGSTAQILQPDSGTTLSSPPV

`Nc1nccc(Oc2ccc(NC(=O)Nc3ccc(Cl)c(C(F)(F)F)c3)cc2)n1`: the IC50 in experiment [1] turned out to be 23 nM.
On to `COc1cc(Nc2ncc(F)c(Nc3ccc4nc(C)cc(N)c4c3)n2)cc(OC)c1OC`, for which inhibition in [2] was half-maximal at 2960 nM (IC50).
For the compound `O=C(Nc1ccc(Oc2ccnc3ccccc23)cc1)Nc1ccc(Cl)c(C(F)(F)F)c1`, half-maximal inhibition in [1] (IC50) required 119 nM.
Consider `CNC(=O)c1nccc(Oc2ccc(NC(=O)Nc3nc4ccccc4s3)cc2)n1`, for which, in experiment [1], 36 nM corresponded to half-maximal inhibition (IC50).
Turning to `COc1cc(Nc2ncc(F)c(Nc3cccc(C(N)=O)c3)n2)cc(OC)c1OC`, the midpoint of inhibition in experiment [2], the IC50, lay at 1130 nM.
`CNC(=O)c1cc(Oc2ccc(NC(=O)Nc3ccc(Cl)c(C(F)(F)F)c3)cc2)ccn1`: the inhibition entry with HUVEC [3] is “Active”.
The compound `CNC(=O)c1cc(Oc2ccc(NC(=O)Nc3cc(C(C)(C)C)on3)cc2)ccn1` showed an IC50 in [1] of 17 nM. Also, the inhibition entry in the experiment with HUVEC [4] was “Dose-dependent effect”. In addition, the inhibition entry (with HUVEC [3]; in experiment [5]; in [6]) was “Active” in each case.
In turn, `N#Cc1cc(Oc2ccc(NC(=O)Nc3ccc(Cl)c(C(F)(F)F)c3)cc2)ccn1` showed an IC50 in experiment [1] of 214 nM.
As to `Cc1cc(N)c2cc(Nc3nc(Nc4ccc(N5CCN(C)CC5)cc4)ncc3F)ccc2n1`, the IC50 with MV4-11 worked out at 3 nM; in the experiment with Ramos, 510 nM; in experiment [2], 13 nM. In addition, the inhibition entry in experiment [7] and in experiment [8] was “Active” in each case.
Regarding `COc1cc(Nc2ncc(F)c(Nc3cc(Cl)ccc3C(N)=O)n2)cc(OC)c1OC`, the 50% inhibitory concentration (IC50) in experiment [2] was 326 nM.
Take `Nc1nccc(Oc2ccc(NC(=O)Nc3nc4ccccc4s3)cc2)n1`: the IC50 in experiment [1] was determined as 120 nM.

By IC50 is commonly meant the concentration that inhibits the measured activity by half.
